Measurements published in patent publication US8357687B2, “Macrocyclic indole derivatives useful as hepatitis C virus inhibitors” (priority 2008, dated 2013).

Legend:
[1] = system: NS5B chimeric replicon of clinical isolate 1a_H77 in Huh7-cure cells; assay: Transient replicon assay, chimeric replicon of clinical isolate 1a_H77 (CI1); format: cell-based, HCV genotype 1a; settings: Hepatitis C virus, 48 h, read-out: EC50-T CI1
[2] = system: NS5B chimeric replicon of clinical isolate 1a—6 in Huh7-cure cells; assay: Transient replicon assay, chimeric replicon of clinical isolate 1a—6 (CI2); format: cell-based, HCV genotype 1a; settings: Hepatitis C virus, 48 h, read-out: EC50-T CI2
[3] = system: wild type replicon of genotype 1b (con1b) in Huh7-cure cells; assay: Transient replicon assay, wild type replicon of genotype 1b (Con1b); format: cell-based, HCV genotype 1b; settings: Hepatitis C virus, transient wild type replicon genotype 1b, 48 h, luciferase, read-out: EC50-T Con1b
[4] = biological target: T1, HCV NS5B polymerase (NS5BΔC21) (Hepatitis C virus genotype 1b, UniProt Q9WMX2); assay: RNA-dependent RNA polymerase assay (enzyme inhibition assay); format: biochemical, HCV (genotype 1b consensus strain Con1)
T1 construct: NS5B (genotype 1b consensus strain Con1) lacking 21 C-terminal residues; made in house; host or cells: E. coli Rosetta 2 (DE3)
Source text: The coding sequence for NS5B (genotype 1b consensus strain Con1) lacking 21 C-terminal residues was amplified from plasmid pFKI389/ns3-3′ (Genbank accession no. AJ242654), plasmid pCV-H77C (Genbank accession no. AF 011751.1) and subcloned into the pET21b plasmid as described previously (Pauwels et al. J. Virol., 2007). The NS5BΔC21 expression constructs were transformed into E. coli Rosetta 2 (DE3) (Novagen, Madison, Wis.). One hundred milliliters of LB-medium supplemented with carbenicillin (50 μg/mL) and chloramphenicol (34 μg/mL) was inoculated with one colony, grown overnight, and transferred to fresh LB-medium supplemented with 3% ethanol, carbenicillin and chloramphenicol, at a ratio of 1:200. Cells were grown to an optical density at 600 nm of 0.6, after which the expression cultures were shifted to a growth temperature of 20° C. following induction with ispopropyl-1-thio-β-D-galactopyranoside and MgCl2 at a final concentration of 0.4 mM and 10 μM, respectively. After 18 h of induction, cells were harvested by centrifugation and resuspended in 20 mM Tris-HCl, pH 7.5, 300 mM NaCl, 10% glycerol, 0.1% NP40, 4 mM MgCl2, 5 mM DTT supplemented with EDTA-free Complete Protease Inhibitor (Roche, Basel, Switzerland). Cell suspensions were disrupted by sonication and incubated with 10-15 mg/L of DNase I (Roche, Basel, Switzerland) for 30 min. Cell debris was removed through ultracentrifugation at 30,000×g for 1 hour and clarified cell lysate was flash frozen and stored at −80° C. prior to purification.
Clarified cell lysate was thawed and subsequently loaded onto a 5 mL pre-packed HisTrap FF column equilibrated with 25 mM HEPES, pH 7.5, 500 mM NaCl, 10% glycerol and 5 mM DTT. Proteins were eluted with 500 mM imidazole at a flow rate of 1 mL/min. Fractions containing the protein of interest were applied onto a pre-packed 26/10 HiPrep Desalting Column equilibrated with 25 mM HEPES, pH 7.5, 250 mM NaCl, 10% glycerol and 5 mM DTT. The buffer-exchanged NS5B peak was then applied onto a 6 ml Resource S column. Protein was eluted with an increasing salt gradient and fractions collected. Protein purity was assessed on Nu-PAGE pre-cast gels (Invitrogen, Carlsbad, Calif.). Purified NS5B samples were concentrated using Centri-Prep concentrators (Millipore, Billerica, Mass., USA) and protein concentrations were determined by spectrofotometry with the Nanodrop (Nanodrop Technologies, Wilmington, Del., USA).
Measurement of HCV NS5B polymerization activity was performed by evaluating the amount of radio labeled GTP incorporated by the enzyme in a newly synthesized RNA using […] RNA template/primer. The RdRp assay was carried out in 384-well plates. 2.5 nM of purified NS5B enzyme was pre-incubated for 10 min with 150 nM 5′-biotinylated oligo(rG13) primer, 15 nM poly(rC) template, in 18 mM Tris-HCl, pH 7.5, 5 mM MgCl2, 20.5 mM KCl, 17 mM NaCl and 2.5 mM of DTT. The test compounds were the added to the preformed polymerase-template complex, and incubated at room temperature for 15 min before the addition 600 nM of GTP, and 0.13 μCi of [^3H]GTP. 30 μL reaction mixture was incubated at room temperature for 2 h before stopping the reaction by adding 30 μL of streptavidin coated SPA-beads (GE Healthcare, Uppsala, Sweden) in 0.5 M EDTA. […] IC50 values represent the concentration of compound required to decrease by 50% the amount of RNA produced which is measured by the detection of incorporated radiolabeled GTP.

[5] = biological target: T2, NS5B wild-type enzyme genotype 1a (Hepatitis C virus genotype 1a, UniProt P27958); assay: Enzyme binding assay (SPR, Biacore), genotype 1a; design: species or system HCV genotype 1a; settings: for kon / t1/2 (dissociative half-life): genotype 1a; for kon: SPR, 25° C.; for t1/2 (dissociative half-life): t1/2=ln(2)/koff
T2 construct: The purified HIS6-tagged NS5BΔC21 polymerases were immobilized; made in house; host or cells: E. coli Rosetta 2 (DE3)
T2 sequence (P27958 2421-2990): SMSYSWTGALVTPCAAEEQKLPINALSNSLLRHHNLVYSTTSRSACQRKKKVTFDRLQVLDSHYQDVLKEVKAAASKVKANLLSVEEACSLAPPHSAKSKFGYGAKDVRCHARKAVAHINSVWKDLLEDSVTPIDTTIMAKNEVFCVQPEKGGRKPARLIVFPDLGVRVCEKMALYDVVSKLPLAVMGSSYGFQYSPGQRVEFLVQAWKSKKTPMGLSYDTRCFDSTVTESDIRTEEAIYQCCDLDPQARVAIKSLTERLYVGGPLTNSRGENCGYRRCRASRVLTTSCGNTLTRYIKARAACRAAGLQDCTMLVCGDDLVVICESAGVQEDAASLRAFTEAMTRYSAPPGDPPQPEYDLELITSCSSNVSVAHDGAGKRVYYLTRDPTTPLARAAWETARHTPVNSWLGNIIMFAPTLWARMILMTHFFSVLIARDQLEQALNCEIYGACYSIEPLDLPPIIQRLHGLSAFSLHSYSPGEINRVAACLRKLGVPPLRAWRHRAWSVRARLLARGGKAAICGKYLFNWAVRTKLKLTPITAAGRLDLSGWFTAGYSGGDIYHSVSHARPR
Procedure: (§1) The compounds of formula (I) were examined for their enzymatic binding kinetics or affinity using a Surface Plasmon Resonance (SPR)-based method, i.e. Biacore. A slow dissociation of the inhibiting compound from its viral target (low koff, low Kd) is believed to potentially reduce the development of drug resistance against anti-viral drugs (Dierynck et al. 2007. Journal of Virology, vol. 81, No. 24, 13845-13851). All measurements were performed on a Biacore T100 instrument (GE Healthcare). The purified HIS6-tagged NS5BΔC21 polymerases were immobilized using non-covalent capturing to an NTA sensor chip (GE Healthcare) in immobilization buffer (20 mM MOPS pH 7.4, 500 mM NaCl, 0.005% Tween-P20, 1 mM DTT, 50 μM EDTA). Interaction studies were all performed at 25° C. Inhibitors were serially diluted in running buffer (20 mM Tris-HCl pH 7.4, 150 mM NaCl, 50 μM EDTA, 1 mM DTT, 0.005% Tween-P20) containing 5% dimethyl sulfoxide (DMSO). Single-cycle kinetics were used, in which 5 increasing concentrations of compound were injected for a period of 300 s each in 1 single cycle, and dissociation was monitored for a period of 1200 s. The sensor surface was completely regenerated in between the cycles. Data were analyzed using simultaneous nonlinear regression analysis (global fitting) adapted for single-cycle kinetics with Biacore T100 BiaEval evaluation software 2.0 (GE Healthcare). The individual rate constants kon and koff and a derived affinity constant, Kd=koff/kon, were determined by a kinetic evaluation of the sensorgrams. The kinetic models accounted for bulk and limited mass transport effects. Every analysis was performed at least in two independent experiments. The dissociation rate of a kinetic interaction can be translated into a compound residence time (dissociative half-life t1/2=ln(2)/koff) representative for the interaction time between the polymerase and its inhibitor.
(§2) The observed association rate constants (kon), dissociation rate constants (koff), derived affinity constant (Kd) and dissociative half-life (t1/2) measured for compounds of formula (I) or subgroups thereof on NS5B wild-type enzyme genotypes 1a, 1b and 4a are given in Table 2.

[6] = biological target: T3, NS5B wild-type enzyme genotype 4a (UniProt O39929); assay: Enzyme binding assay (SPR, Biacore), genotype 4a; design: species or system HCV genotype 4a; settings: for Kd: Kd=koff/kon; for koff / kon: SPR, 25° C.; for t1/2 (dissociative half-life): t1/2=ln(2)/koff
T3 construct: fused on or other part: His6 tag
Procedure: as §1, §2

[7] = biological target: T4, NS5B wild-type enzyme genotype 1b (Hepatitis C virus genotype 1b, UniProt Q9WMX2); assay: Enzyme binding assay (SPR, Biacore), genotype 1b; settings: for koff / kon / t1/2 (dissociative half-life): genotype 1b; for koff / kon: SPR, 25° C.; for t1/2 (dissociative half-life): t1/2=ln(2)/koff
T4 construct: NS5B (genotype 1b consensus strain Con1) lacking 21 C-terminal residues; made in house; host or cells: E. coli Rosetta 2 (DE3)
Procedure: as §1, §2

Row | Compound | EC50 [1] [nM] | EC50 [2] [nM] | EC50 [3] [nM] | IC50 [4] [nM] | Kd [5] [nM] | koff [5] [s⁻¹] | kon [5] | t1/2 (dissociative half-life) [5] [min] | Kd [6] [nM] | koff [6] [s⁻¹] | kon [6] | t1/2 (dissociative half-life) [6] [min] | Kd [7] [nM] | koff [7] [s⁻¹] | kon [7] | t1/2 (dissociative half-life) [7] [min]
1 | CN1CCCCCNC(=O)COc2ccccc2-c2c(C3CCCCC3)c3ccc(cc3n2C)C(=O)NS1(=O)=O [Compound 21, 25-cyclohexyl-10,19-dimethyl-5,6,7,8,9,10-hexahydro-2H-14,18:17,20-di(metheno)-1,11,4,10,12,19-benzoxathiatetraazacyclodocosine-3,13(4H,12H,19H)-dione 11,11-dioxide] | 55 | 95 | 123 | 148 | – | – | – | – | – | – | – | – | – | – | – | –
2 | CN1CCN2CCN(CC2)C(=O)COc2ccccc2-c2c(C3CCCCC3)c3ccc(cc3n2C)C(=O)NS1(=O)=O [Compound 22, 30-cyclohexyl-12,21-dimethyl-4-oxa-20-thia-1,12,19,21,24-pentaazapentacyclo[22.2.2.1^11,14.1^13,17.0^5,10]triaconta-5,7,9,11(30),13(29),14,16-heptaene-2,18-dione 20,20-dioxide] | 156 | 201 | 164 | 181 | – | – | – | – | – | – | – | – | – | – | – | –
3 | CN1CCCCNC(=O)COc2ccccc2-c2c(C3CCCCC3)c3ccc(cc3n2C)C(=O)NS1(=O)=O [Compound 32, 24-cyclohexyl-9,18-dimethyl-4,5,6,7,8,9-hexahydro-13,17:16,19-di(metheno)-1,10,4,9,11,18-benzoxathiatetraazacyclohenicosine-3,12(2H,11H,18H)-dione 10,10-dioxide] | 1600 | 2950 | 3610 | 1820 | 3300 | 0.0089 | 3.0E+03 1/MS | 1.3 | 450 | 0.0087 | 1.9E+04 1/MS | 1.33 | 1200 | 0.015 | 1.3E+04 1/MS | 0.783
4 | CN1CCCCN(C)S(=O)(=O)NC(=O)c2ccc3c(C4CCCCC4)c(n(C4CCCC4)c3c2)-c2ccccc2OCC1=O [Compound 40, 24-cyclohexyl-18-cyclopentyl-4,9-dimethyl-4,5,6,7,8,9-hexahydro-13,17:16,19-di(metheno)-1,10,4,9,11,18-benzoxathiatetraazacyclohenicosine-3,12(2H,11H,18H)-dione 10,10-dioxide] | 5150 | 5270 | 7340 | 1090 | – | – | – | – | – | – | – | – | – | – | – | –
5 | CN1CCCCCNC(=O)COc2ccc(F)cc2-c2c(C3CCCCC3)c3ccc(cc3n2C)C(=O)NS1(=O)=O [Compound 51, 25-cyclohexyl-22-fluoro-10,19-dimethyl-5,6,7,8,9,10-hexahydro-2H-14,18:17,20-di(metheno)-1,11,4,10,12,19-benzoxathiatetraazacyclodocosine-3,13(4H,12H,19H)-dione 11,11-dioxide] | – | – | – | 88 | 39 | 0.0035 | 9.5E+04 1/MS | 3.3 | 11 | 0.0022 | 1.9E+05 1/MS | 5.33 | 16 | 0.00031 | 2.0E+04 1/MS | 37.38
6 | CC(C)n1c2c(C3CCCCC3)c3ccc(cc31)C(=O)NS(=O)(=O)N(C)CCOCCN(C)C(=O)COc1ccccc1-2 [Compound 52, 25-cyclohexyl-4,10-dimethyl-19-(1-methylethyl)-5,6,9,10-tetrahydro-2H,8H-14,18:17,20-di(metheno)-1,7,11,4,10,12,19-benzodioxathiatetraazacyclodocosine-3,13 (4H,12H,19H)-dione 11,11-dioxide] | 7140 | 7960 | 7660 | 1660 | – | – | – | – | – | – | – | – | – | – | – | –
7 | COc1ccc2c(c1)OCC(=O)N(C)CCCCN(C)S(=O)(=O)NC(=O)c1ccc3c(C4CCCCC4)c-2n(C)c3c1 [Compound 53, 24-cyclohexyl-22-methoxy-4,9,18-trimethyl-4,5,6,7,8,9-hexahydro-13,17:16,19-di(metheno)-1,10,4,9,11,18-benzoxathiatetraazacyclohenicosine-3,12(2H,11H,18H)-dione 10,10-dioxide] | 44 | 66 | 83 | – | – | – | – | – | – | – | – | – | – | – | – | –
8 | COc1ccc2c(c1)OCC(=O)N(C)CCOCCN(C)S(=O)(=O)NC(=O)c1ccc3c(C4CCCCC4)c-2n(C)c3c1 [Compound 54, 25-cyclohexyl-23-methoxy-4,10,19-trimethyl-5,6,9,10-tetrahydro-2H,8H-14,18:17,20-di(metheno)-1,7,11,4,10,12,19-benzodioxathiatetraazacyclodocosine-3,13 (4H,12H,19H)-dione 11,11-dioxide] | 67 | 81 | 103 | – | – | – | – | – | – | – | – | – | – | – | – | –
